Laboratory results reported in patent US10899744B2, “Crystalline form of compound suppressing protein kinase activity, and application thereof” (XCOVERY HOLDINGS, INC., priority 2016, dated 2021).
In brackets after ≈: the same amount, converted by molar mass. Structures can show the parent of a compound that is named as a salt.

Columns and labels:
[1] = Assay of Dynamic Vapor Sorption (DVS); format: physicochemical; settings: for weight change: range of 0% to 80% RH
[2] = Stability of the crystalline form; format: physicochemical
[3] = Solubility determination in water; format: physicochemical; settings: room temperature
[4] = Pharmacokinetics in female SD rats, intragastric gavage; format: in vivo; settings: PO
Method: 6 female SD rats were divided into two groups, three rats in each group. 50 mg/kg of Crystalline form A of the compound of formula I and free base amorphis of the compound of formula I were administered by intragastric gavage at single dose to each female SD rat respectively; the blood samples were collected through the jugular vein at the specified time, and the plasma from these samples was separated and stored in the refrigerator at −80° C.
For the above plasma from these samples, protein was precipitated using acetonitrile, the supernatant was diluted 3-fold by water, then took 5 μL of the solution for LC-MS/MS test, and data is shown in Table 9: […]

ALK (C1156Y) = molecular target: T1, ALK (C1156Y) (Homo sapiens, UniProt Q9UM73, C1156Y); assay: Biochemical kinase activity (Reaction Biology Corp)
T1 construct: purchased Reaction Biology Corp (contract testing)
Method: (§1) Biochemical kinase activity of the compound as shown in formula I was tested by Reaction Biology Corp located in Malvern, Pa., USA. The testing rules is described in Nat Biotechnol.

ALK (F1174L) = molecular target: T2, ALK (F1174L) (Homo sapiens, UniProt Q9UM73, F1174L); assay: as above
T2 construct: purchased Reaction Biology Corp (contract testing)
T2 sequence (Q9UM73 19-1620 F1174L): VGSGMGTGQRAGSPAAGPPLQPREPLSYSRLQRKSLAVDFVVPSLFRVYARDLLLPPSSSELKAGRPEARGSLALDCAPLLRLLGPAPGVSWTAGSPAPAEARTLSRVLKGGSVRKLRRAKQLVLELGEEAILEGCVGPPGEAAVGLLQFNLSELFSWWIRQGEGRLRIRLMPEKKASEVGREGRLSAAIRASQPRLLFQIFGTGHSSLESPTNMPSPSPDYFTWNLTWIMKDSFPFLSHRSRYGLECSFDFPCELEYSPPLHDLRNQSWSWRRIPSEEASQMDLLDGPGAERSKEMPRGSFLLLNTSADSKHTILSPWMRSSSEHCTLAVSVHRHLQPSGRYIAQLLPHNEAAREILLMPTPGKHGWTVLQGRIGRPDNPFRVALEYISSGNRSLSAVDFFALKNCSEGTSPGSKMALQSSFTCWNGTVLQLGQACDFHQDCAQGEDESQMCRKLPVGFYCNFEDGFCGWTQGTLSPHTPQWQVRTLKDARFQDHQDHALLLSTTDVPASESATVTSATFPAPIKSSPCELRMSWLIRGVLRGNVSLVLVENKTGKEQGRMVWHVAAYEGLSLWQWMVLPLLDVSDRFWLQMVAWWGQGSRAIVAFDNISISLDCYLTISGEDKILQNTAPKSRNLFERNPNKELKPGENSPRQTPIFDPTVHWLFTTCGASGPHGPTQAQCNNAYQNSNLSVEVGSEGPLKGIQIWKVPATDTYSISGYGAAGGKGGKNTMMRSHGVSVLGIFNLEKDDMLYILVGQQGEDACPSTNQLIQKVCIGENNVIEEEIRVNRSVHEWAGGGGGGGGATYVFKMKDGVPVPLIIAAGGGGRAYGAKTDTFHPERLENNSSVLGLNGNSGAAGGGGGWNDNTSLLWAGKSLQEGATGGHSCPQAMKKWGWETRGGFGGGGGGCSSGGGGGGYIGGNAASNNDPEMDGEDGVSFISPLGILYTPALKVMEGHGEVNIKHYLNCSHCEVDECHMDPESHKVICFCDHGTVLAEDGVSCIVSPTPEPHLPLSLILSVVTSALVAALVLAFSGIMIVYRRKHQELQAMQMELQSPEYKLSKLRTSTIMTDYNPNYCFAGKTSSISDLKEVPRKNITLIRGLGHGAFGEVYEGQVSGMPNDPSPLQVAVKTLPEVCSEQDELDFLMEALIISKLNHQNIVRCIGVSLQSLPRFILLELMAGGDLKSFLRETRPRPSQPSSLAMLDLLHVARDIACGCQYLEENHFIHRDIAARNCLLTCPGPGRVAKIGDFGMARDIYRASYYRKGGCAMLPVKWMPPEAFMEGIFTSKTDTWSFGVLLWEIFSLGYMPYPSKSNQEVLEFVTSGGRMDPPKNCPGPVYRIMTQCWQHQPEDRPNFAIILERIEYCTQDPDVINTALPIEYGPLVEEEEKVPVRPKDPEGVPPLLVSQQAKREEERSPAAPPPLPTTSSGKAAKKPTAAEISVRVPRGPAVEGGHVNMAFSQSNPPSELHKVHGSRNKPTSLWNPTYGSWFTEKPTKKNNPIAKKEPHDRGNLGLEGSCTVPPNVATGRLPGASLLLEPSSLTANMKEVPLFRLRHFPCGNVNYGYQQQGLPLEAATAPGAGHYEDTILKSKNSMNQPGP
Method: as §1

ALK (F1174S) = molecular target: T3, ALK (F1174S) (Homo sapiens, UniProt Q9UM73, F1174S); assay: as above
T3 construct: purchased Reaction Biology Corp (contract testing)
Method: as §1

ALK (Fl 174L)-EML4 = molecular target: T4, ALK (Fl 174L)-EML4 (Homo sapiens, UniProt Q9UM73, F1174L); assay: as above
T4 construct: EML4 part (fusion partner); purchased Reaction Biology Corp (contract testing)
Method: as §1

ALK (Fl 174L)-NPM1 = molecular target: T5, ALK (Fl 174L)-NPM1 (Homo sapiens, UniProt Q9UM73, F1174L); assay: as above
T5 construct: NPM1 part (fusion partner); purchased Reaction Biology Corp (contract testing); the other entry of the earlier key: NPM1 (P06748, Nucleophosmin)
Method: as §1

ALK (G1202R) = molecular target: T6, ALK (G1202R) (Homo sapiens, UniProt Q9UM73, G1202R); assay: as above
T6 construct: purchased Reaction Biology Corp (contract testing)
Method: as §1

ALK (G1269A) = molecular target: T7, ALK (G1269A) (Homo sapiens, UniProt Q9UM73, G1269A); assay: as above
T7 construct: purchased Reaction Biology Corp (contract testing)
Method: as §1

ALK (G1269S) = molecular target: T8, ALK (G1269S) (Homo sapiens, UniProt Q9UM73, G1269S); assay: as above
T8 construct: purchased Reaction Biology Corp (contract testing)
Method: as §1

ALK = molecular target: T9, ALK (Homo sapiens, UniProt Q9UM73); assay: as above
T9 construct: purchased Reaction Biology Corp (contract testing)
Method: as §1

ALK (R1275Q) = molecular target: T10, ALK (R1275Q) (Homo sapiens, UniProt Q9UM73, R1275Q); assay: as above
T10 construct: purchased Reaction Biology Corp (contract testing)
Method: as §1

ALK (S1206R) = molecular target: T11, ALK (S1206R) (Homo sapiens, UniProt Q9UM73, S1206R); assay: as above
T11 construct: purchased Reaction Biology Corp (contract testing)
Method: as §1

ALK (T1151-L1152insT) = molecular target: T12, ALK (T1151-L1152insT) (Homo sapiens, UniProt Q9UM73, INS1151T); assay: as above
T12 construct: purchased Reaction Biology Corp (contract testing)
Method: as §1

ALK (T1151M) = molecular target: T13, ALK (T1151M) (Homo sapiens, UniProt Q9UM73, T1151M); assay: as above
T13 construct: purchased Reaction Biology Corp (contract testing)
Method: as §1

ALK(L1152R) = molecular target: T14, ALK(L1152R) (Homo sapiens, UniProt Q9UM73, L1152R); assay: as above
T14 construct: purchased Reaction Biology Corp (contract testing)
Method: as §1

ALK(L1196M) = molecular target: T15, ALK(L1196M) (Homo sapiens, UniProt Q9UM73, L1196M); assay: as above
T15 construct: purchased Reaction Biology Corp (contract testing)
T15 sequence (Q9UM73 19-1620 L1196M): as the sequence (Q9UM73 19-1620 F1174L) above, with L1156F, L1178M counted along it
Method: as §1

ALK-NPM1 = molecular target: T16, ALK-NPM1 (Homo sapiens, UniProt Q9UM73); assay: as above
T16 construct: NPM1 part (fusion partner); purchased Reaction Biology Corp (contract testing); the other entry of the earlier key: NPM1 (P06748, Nucleophosmin)
Method: as §1

ALK-TFG = molecular target: T17, ALK-TFG (Homo sapiens, UniProt Q9UM73); assay: as above
T17 construct: fused on or other part: Q92734 (Protein TFG)
Method: as §1

ALK-TPM3 = molecular target: T18, ALK-TPM3 (Homo sapiens, UniProt Q9UM73); assay: as above
T18 construct: fused on or other part: P06753 (Tropomyosin alpha-3 chain)
Method: as §1

CSF1R (FMS) = molecular target: T19, CSF1R (FMS) (Homo sapiens, UniProt P07333); assay: as above
T19 construct: purchased Reaction Biology Corp (contract testing)
Method: as §1

EPHA1 = molecular target: T20, EPHA1 (Homo sapiens, UniProt P21709); assay: as above
T20 construct: purchased Reaction Biology Corp (contract testing)
T20 sequence (P21709 26-976): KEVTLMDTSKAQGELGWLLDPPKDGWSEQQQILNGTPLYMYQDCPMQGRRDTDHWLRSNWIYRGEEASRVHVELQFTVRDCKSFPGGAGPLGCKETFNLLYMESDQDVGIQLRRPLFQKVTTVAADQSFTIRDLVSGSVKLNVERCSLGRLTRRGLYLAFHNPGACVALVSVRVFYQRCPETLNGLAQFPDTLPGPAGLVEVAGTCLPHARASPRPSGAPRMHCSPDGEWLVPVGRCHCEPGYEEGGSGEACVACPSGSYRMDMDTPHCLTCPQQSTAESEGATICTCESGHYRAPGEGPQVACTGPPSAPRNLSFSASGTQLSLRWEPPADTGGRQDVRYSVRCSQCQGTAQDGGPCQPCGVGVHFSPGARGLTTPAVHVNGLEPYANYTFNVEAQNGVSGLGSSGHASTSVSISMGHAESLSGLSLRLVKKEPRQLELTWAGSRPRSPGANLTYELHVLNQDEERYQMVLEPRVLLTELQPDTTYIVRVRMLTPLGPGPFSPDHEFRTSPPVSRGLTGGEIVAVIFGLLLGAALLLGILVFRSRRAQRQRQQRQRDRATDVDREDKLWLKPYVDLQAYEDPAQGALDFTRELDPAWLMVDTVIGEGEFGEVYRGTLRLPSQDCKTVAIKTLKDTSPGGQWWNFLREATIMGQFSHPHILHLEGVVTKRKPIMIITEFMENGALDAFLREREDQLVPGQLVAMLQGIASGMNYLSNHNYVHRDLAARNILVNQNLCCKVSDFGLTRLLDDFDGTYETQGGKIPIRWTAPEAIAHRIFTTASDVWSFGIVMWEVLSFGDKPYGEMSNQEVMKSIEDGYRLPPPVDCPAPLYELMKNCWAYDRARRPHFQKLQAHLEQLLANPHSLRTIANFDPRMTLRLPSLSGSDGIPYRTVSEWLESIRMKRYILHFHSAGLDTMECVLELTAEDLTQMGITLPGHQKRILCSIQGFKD
Method: as §1

EPHA2 = molecular target: T21, EPHA2 (Homo sapiens, UniProt P29317); assay: as above
T21 construct: purchased Reaction Biology Corp (contract testing)
Method: as §1

EPHB1 = molecular target: T22, EPHB1 (Homo sapiens, UniProt P54762); assay: as above
T22 construct: purchased Reaction Biology Corp (contract testing)
Method: as §1

NEK1 = molecular target: T23, NEK1 (Homo sapiens, UniProt Q96PY6); assay: as above
T23 construct: purchased Reaction Biology Corp (contract testing)
Method: as §1

ROS/ROS1 = molecular target: T24, ROS/ROS1 (Homo sapiens, UniProt P08922); assay: as above
T24 construct: purchased Reaction Biology Corp (contract testing)
Method: as §1

ROS1-GOPC = molecular target: T25, ROS1-GOPC (Homo sapiens, UniProt P08922); assay: as above
T25 construct: fused on or other part: Q9HD26 (Golgi-associated PDZ and coiled-coil motif-containing protein)
Method: as §1

TRKA = molecular target: T26, TRKA (Homo sapiens, UniProt P04629); assay: as above
T26 construct: purchased Reaction Biology Corp (contract testing)
Method: as §1

TRKA-TFG (TRK-T3) = molecular target: T27, TRKA-TFG (TRK-T3) (Homo sapiens, UniProt P04629); assay: as above
T27 construct: TFG (fusion partner, UniProt Q92734); purchased Reaction Biology Corp; the other entry of the earlier key: TFG (Q92734, Protein TFG)
Method: as §1

TRKA-TPM3 = molecular target: T28, TRKA-TPM3 (Homo sapiens, UniProt P04629); assay: as above
T28 construct: fused on or other part: P06753 (Tropomyosin alpha-3 chain)
Method: as §1

TRKA-TPR = molecular target: T29, TRKA-TPR (Homo sapiens, UniProt P04629); assay: as above
T29 construct: fused on or other part: P12270 (Nucleoprotein TPR)
Method: as §1

TRKB = molecular target: T30, TRKB (Homo sapiens, UniProt Q16620); assay: as above
T30 construct: purchased Reaction Biology Corp
Method: as §1

TRKC = molecular target: T31, TRKC (Homo sapiens, UniProt Q16288); assay: as above
T31 construct: purchased Reaction Biology Corp
T31 sequence (Q16288 32-839): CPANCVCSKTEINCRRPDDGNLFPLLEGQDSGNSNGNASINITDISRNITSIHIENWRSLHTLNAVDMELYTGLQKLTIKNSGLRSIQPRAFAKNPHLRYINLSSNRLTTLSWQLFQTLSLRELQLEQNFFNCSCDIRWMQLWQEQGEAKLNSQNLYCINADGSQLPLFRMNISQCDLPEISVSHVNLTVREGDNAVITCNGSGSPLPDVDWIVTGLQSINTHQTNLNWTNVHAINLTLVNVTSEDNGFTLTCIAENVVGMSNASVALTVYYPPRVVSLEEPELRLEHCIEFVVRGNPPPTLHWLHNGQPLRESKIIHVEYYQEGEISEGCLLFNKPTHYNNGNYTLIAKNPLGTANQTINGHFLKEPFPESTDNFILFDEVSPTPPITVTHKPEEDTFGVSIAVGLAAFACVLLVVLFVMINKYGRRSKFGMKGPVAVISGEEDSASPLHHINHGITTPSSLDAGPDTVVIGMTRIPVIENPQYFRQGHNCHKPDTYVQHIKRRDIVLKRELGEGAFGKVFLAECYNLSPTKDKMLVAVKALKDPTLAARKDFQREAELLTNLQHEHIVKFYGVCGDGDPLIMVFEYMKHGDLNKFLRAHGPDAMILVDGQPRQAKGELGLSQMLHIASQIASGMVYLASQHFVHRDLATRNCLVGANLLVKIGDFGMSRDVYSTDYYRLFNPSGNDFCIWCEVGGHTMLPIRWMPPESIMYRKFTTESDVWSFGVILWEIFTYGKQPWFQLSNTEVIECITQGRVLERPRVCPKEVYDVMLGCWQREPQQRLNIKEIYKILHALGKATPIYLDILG
Method: as §1

c-MET = molecular target: T32, c-MET (Homo sapiens, UniProt P08581); assay: as above
T32 construct: purchased Reaction Biology Corp (contract testing)
Method: as §1

[5] = cited from earlier work
[6] = Sprague-Dawley, rat, 50 mg/kg single dose, plasma

## C[C@@H]1CN(C(=O)c2ccc(NC(=O)c3cc(O[C@H](C)c4c(Cl)ccc(F)c4Cl)c(N)nn3)cc2)C[C@H](C)N1 [Amorphis]
[1]
  weight change: about 15.7%
[1]; weight change 0-80% RH
  hygroscopicity judgment: extremely hygroscopic

## C[C@@H]1CN(C(=O)c2ccc(NC(=O)c3cc(O[C@H](C)c4c(Cl)ccc(F)c4Cl)c(N)nn3)cc2)C[C@H](C)N1 [Crystalline form A]
[2]; 25° C.-60% RH for 10 days
  change in crystalline form: no change in crystalline form
[2]; 40° C.-75% RH for 10 days
  change in crystalline form: no change in crystalline form
[2]; 80° C. for 24 hours
  change in crystalline form: no change in crystalline form
[1]; 0% RH drying stage
  moisture removed: about 1.5%
[1]; 0% RH-80% RH range
  moisture absorbed: about 2.3%
[1]; desorption stage, 30% RH
  moisture removed: 1.5%
[1]
  weight change: about 2.3%
[1]; range of 30-80% RH
  change of the weight: less than 2%
[3]
  solubility: 20 to 100 mg/mL (≈ 35.6 to 178 mM)
[4]; 50 mg/kg
  absorption in vivo compared with the free base amorphis: higher absorption in vivo
[4]; [6]
  AUC(0-t): 11600 ng·h/mL
  Cmax: 1440 ng/mL
  Tmax: 2.67 h

## C[C@@H]1CN(C(=O)c2ccc(NC(=O)c3cc(O[C@H](C)c4c(Cl)ccc(F)c4Cl)c(N)nn3)cc2)C[C@H](C)N1 [Crystalline form B]
[2]; 25° C.-60% RH for 10 days
  change in crystalline form: no change in crystalline form
[2]; 40° C.-75% RH for 10 days
  change in crystalline form: no change in crystalline form
[2]; 80° C. for 24 hours
  change in crystalline form: no change in crystalline form
[1]; 10% RH in the adsorption stage
  moisture absorbed: about 4%
[1]
  weight change: about 2.3%
[1]; range of 10-80% RH
  change of weight: less than 2%
[1]; under 10% RH
  moisture removed: about 4%

## C[C@@H]1CN(C(=O)c2ccc(NC(=O)c3cc(O[C@H](C)c4c(Cl)ccc(F)c4Cl)c(N)nn3)cc2)C[C@H](C)N1 [Crystalline form C]
[2]; dried in vacuum at room temperature overnight
  change in crystalline form: almost completely converted to Crystalline form A

## C[C@@H]1CN(C(=O)c2ccc(NC(=O)c3cc(O[C@H](C)c4c(Cl)ccc(F)c4Cl)c(N)nn3)cc2)C[C@H](C)N1 [Crystalline form D]
[2]; dried at room temperature or dried in vacuum at room temperature
  change in crystalline form: transformed into Crystalline form B

## C[C@@H]1CN(C(=O)c2ccc(NC(=O)c3cc(O[C@H](C)c4c(Cl)ccc(F)c4Cl)c(N)nn3)cc2)C[C@H](C)N1 [Crystalline form E]
[2]; placed in a desiccator for 2 days
  change in crystalline form: transformed into Crystalline form A

## C[C@@H]1CN(C(=O)c2ccc(NC(=O)c3cc(O[C@H](C)c4c(Cl)ccc(F)c4Cl)c(N)nn3)cc2)C[C@H](C)N1 [compound of Formula I, {5-[(1R)-1-(2,6-dichloro-3-fluorophenyl)ethoxy]-6-aminopyridazin-3-ly}-N-{4-[((3S,5R)-3,5-dimethylpiperazinyl)carbonyl]phenyl} carboxamide hydrochloride]
ALK (C1156Y)
  IC50: 0.28 nM
ALK (F1174L)
  IC50: 0.16 nM
ALK (F1174S)
  IC50: 0.17 nM
ALK (Fl 174L)-EML4
  IC50: 0.53 nM
ALK (Fl 174L)-NPM1
  IC50: 0.47 nM
ALK (G1202R)
  IC50: 3.83 nM
ALK (G1269A)
  IC50: 1.14 nM
ALK (G1269S)
  IC50: 1.39 nM
ALK
  IC50: 0.16 nM
ALK (R1275Q)
  IC50: 1.06 nM
ALK (S1206R)
  IC50: 0.17 nM
ALK (T1151-L1152insT)
  IC50: 0.26 nM
ALK (T1151M)
  IC50: 0.13 nM
ALK(L1152R)
  IC50: 0.58 nM
ALK(L1196M)
  IC50: 0.32 nM
ALK-NPM1
  IC50: 0.68 nM
ALK-TFG
  IC50: 0.73 nM
ALK-TPM3
  IC50: 0.21 nM
CSF1R (FMS)
  IC50: 13.4 nM
EPHA1
  IC50: 6.22 nM
EPHA2
  IC50: 1.14 nM
EPHB1
  IC50: 8.59 nM
NEK1
  IC50: 6.08 nM
ROS/ROS1
  IC50: 1.41 nM
ROS1-GOPC
  IC50: 0.98 nM
TRKA
  IC50: 8 nM
TRKA-TFG (TRK-T3)
  IC50: 0.46 nM
TRKA-TPM3
  IC50: 0.62 nM
TRKA-TPR
  IC50: 1.22 nM
TRKB
  IC50: 3.39 nM
TRKC
  IC50: 0.46 nM
c-MET
  IC50: 9.59 nM

## C[C@@H](Oc1cc(-c2cnn(C3CCNCC3)c2)cnc1N)c1c(Cl)ccc(F)c1Cl [crizotinib, Crizotinib]
[5]; Phase I clinical trial
  disease control: 90%
  objective response rate (ORR): 64%
[5]; most patients
  time of treatment until resistance and disease progression: 6-18 months
